Results from US5260425A, “Anthracycline derivatives having cytostatic activity” (priority 1988, dated 1993).
Converted amounts (≈) assume the structure as drawn. Read-outs that look alike come from different tables or passages of the source.

Legend:
[1] = tested on: L1210 leukemia; assay: In vivo activity on L1210 leukemia of the mouse (antitumor activity T/C); settings: for response vs control in vivo at 2.8 mg/kg: dose 2.80 mg/kg
Protocol: Ascites fluid is removed from DBA2 mice (female, 18-20 g) under sterile conditions 7 days after inoculation of tumor cells. The ascites is washed three times with PBS (phosphate-buffered saline), counted and adjusted to a cell count of 10^6 in 0.2 ml of PBS.
10^6 cells, suspended in 0.2 ml of PBS, are then injected intraperitoneally into DBF1 mice (female, 18-20 g). 6 animals per group are used for each substance concentration and as controls.
a) The animals are weighed on days 1 and 5 after injection of the test substance. A weight loss of more than 20% on day 5 is regarded as an indicator of a toxic effect of the substance.
b) At the end of the experiment (death of all animals or surviving animals on day 60) the mean survival time of the animals in the particular groups is determined as long as at least 65% of the animals were still alive on day 5 of the experiment. The mean survival time is determined only for animals which die during the course of the experiment. Long-term survivors (LTS) are not included in this calculation and are reported separately.
The antitumor activity (T/C) for the particular substance concentration is determined from the mean survival time (MSTT) in the treated groups and in the control groups (MSTC) as a percentage of the untreated controls in accordance with the following formula: [formula]
The T/C values and the treatment regimen employed in each case are compiled in Table 3, together with the indicative toxicity. T/C values greater than 125% are regarded as an indicator of a significant antitumor activity of the test substance.

[2] = Determination of the indicative toxicity; settings: mouse, in vivo, ip; 3xip,q3d (three intraperitoneal administrations, 3 days interval); survival day 14
Protocol: To determine the indicative toxicity, NMRI mice receive an intraperitoneal injection of various doses of the test substance dissolved in 0.5 ml of 5% strength glucose solution on day 0. Control groups receive merely 0.5 ml of 5% strength glucose solution. 5 mice are used for each concentration of the test substance. The number of mice surviving on day 14 is determined, and from this the LD5, LD50 and LD95 are determined by the Litchfield-Wilcoxon method. The toxicity (LD50 (mg/kg)) of the compounds described here is summarized in Table 3 by comparison with adriamycin.

[3] = tested on: L1210 mouse leukemia cells; assay: Formation of colonies of L1210 leukemia cells in soft agar (cytotoxicity in vitro); format: cell-based; settings: Mus musculus
Protocol: The cytostatic activity of the compounds according to the invention has been tested using L1210 mouse leukemia cells. Employed for this purpose was the formation of colonies of L1210 leukemia cells in agar plates. This method is used to detect the effect of the test substances on the growth behavior of the cells over 1 hour or over several generations. In this connection, with a cell cycle time of 10-12 hours about 14 consecutive generations are observed in the 7 days the test lasts. In this test, the substances having cytostatic activity according to the invention bring about a reduction in the number of colonies to be observed by comparison with an untreated control sample.
Procedure for determining the formation of colonies of L1210 leukemia cells in soft agar
500 leukemia cells per plate were incubated with various concentrations of the test substance at 37° C. for 1 hour. The cells were then washed twice with McCoy5A medium and finally, after addition of 0.3% agar, poured into Petri dishes. Controls were incubated only with fresh medium. In place of the incubation for one hour, in some cases various concentrations and test substances were mixed with the upper agar layer in order in this way to achieve continuous exposure of the cells throughout the incubation time. After the agar had solidified, the plates were incubated in an incubator at 37° C. for 7 days (5% by volume CO2, 95% relative humidity). The number of colonies which had been produced with a diameter of more than 60 μm was then counted. The results have been reported as the number of colonies in treated agar plates as a percentage of the untreated control. The IC50 was determined as a measure of the activity of the substance from the dose-effect plot obtained in this way. The results for the compounds described herein, by comparison with adriamycin, are compiled in Table 1.

[4] = tested on: sensitive and resistant L1210 leukemia cells; assay: Proliferation test (MTT reduction), cross-resistance to doxorubicin/adriamycin in vitro; format: cell-based, mouse; settings: for Degree of resistance of the cell / Cross-resistance to adriamycin (degree of cross-resistance): MTT, 3d; for Degree of resistance of the cell: IC50 resistant subline related to IC50 sensitive subline; for Cross-resistance to adriamycin (degree of cross-resistance): adriamycin = 100.0; for Cross-resistance to doxorubicin (in words): L1210, MTT, in vitro
Protocol: L1210, A 549 or HT 29 in the exponential phase of growth are incubated in a cell density of 5×10^3 cells/ml in RPMI 1640 in a 96-well microtiter plate with various concentrations of the test substance at 37° C., 5% CO2 and 95% relative humidity for 72 h. Control experiments receive merely growth medium in place of the test substance. Quadruplicate determinations are set up for each test substance and for the control. After incubation for 65 h, 50 μl of an MTT solution (2.5 mg/ml; MTT=3-(4,5-dimethylthiazol-2-yl)-2,5-diphenyltetrazoliumbromide) in phosphate-buffered saline) are added. MTT is reduced to a dark red insoluble formazan dyestuff in the presence of live cells. This reaction is complete after 7 h (L1210 cells) or after 24 h (A 549, HT 29 cells), and the supernatant medium is carefully removed by aspiration. The insoluble dyestuff is dissolved by addition of 100 μl of DMSO (dimethyl sulfoxide) and the extinction of the resulting solution at a wavelength of 492 nm is then measured for each well in a multiscan 340 CC photometer from Flow.
The ratio of the extinctions for treated and untreated cells provides a dose-effect plot from which the concentration which just kills 50% of the cells (IC50) can be read off. The coefficient of variation for repeat investigations is less than 15%.
The cross-resistance between the particular test compound and doxorubicin as standard compound is determined with the aid of the MTT test (see above for method) on sensitive and resistant L1210 leukemia cells.
The resistant cell line was established by incubation of a sensitive subline with the reference compound in concentrations which increased stepwise.
The IC50 of the test compound on the resistant subline related to the IC50 of the sensitive subline provides both the degree of resistance for the test Compound (DR(T)) and that for the reference compound (DR(R)) in accordance with the formula [formula]
In addition, the degree of cross-resistance (DCR) for the test compound is calculated in accordance with the formula [formula]
In the case where the loss of effect of the test compound on the resistant line in relation to the sensitive line is greater than that of the reference compound it is possible for the degree of cross-resistance to be above 100%.

[5] = Determination of the indicative toxicity; settings: mouse, in vivo; 3xiv,q3d (three intravenous administrations, 3 days interval); survival day 14
[6] = 168 h, continuous incubation, 7 days, L1210 colonies in agar, read-out: IC50, continuous incubation
[7] = 1 h incubation, then 7 days, L1210 colonies in agar, read-out: IC50, 1 h incubation
[8] = Mus musculus, L1210, ip, read-out: T/C, L1210-leukemia in vivo
[9] = L1210, 168 h, read-out: IC50, continuous incubation, continuous incubation, 7 days, L1210 colonies in agar
[10] = L1210, read-out: IC50, 1 h incubation, 1 h incubation, then 7 days, L1210 colonies in agar

SMILES	LD50 at 336 h [2]	IC50 [3, 6]	IC50 [3, 7]	Degree of resistance of the cell [4]	Cross-resistance to adriamycin (degree of cross-resistance) [4]	IC50 [3, 9]	IC50 [3, 10]	Cross-resistance to doxorubicin (in words) [4]	other results
COc1cccc2c1C(=O)c1c(O)c3c(c(O)c1C2=O)C[C@@](O)(C(=O)CO)C[C@@H]3O[C@H]1C[C@H](N)[C@H](O)[C@H](C)O1 [Adriamycin, reference compound]	2.7 mg/kg	0.02 µg/mL (≈ 0.0368 µM)	0.04 µg/mL (≈ 0.0736 µM)	60-80	100.0%				Animals recovered (longterm survivors) ([1]; 3xip,q3d, L1210-leukemia in vivo): Two of 6
C=CCN(C)[C@H]1C[C@H](O[C@H]2C[C@](O)(CC)[C@H](O)c3c(O)c4c(c(O)c32)C(=O)c2c(O)cccc2C4=O)O[C@@H](C)[C@H]1O [Compound 1, 7-O-(3'-N-Allyl-3'-N-methyl-alpha-L-daunosaminyl)-β-rhodomycinone]	1 to 5 mg/kg			10.0	19.0%	0.01 µg/mL (≈ 0.0176 µM)	0.08 µg/mL (≈ 0.14 µM)	not cross-resistant to doxorubicin	response vs control in vivo at 1.19 mg/kg [1, 8]: 200%; response vs control in vivo at 1 mg/kg ([1]; Mus musculus, L1210, iv, read-out: T/C, L1210-leukemia in vivo): 146%
CC[C@@]1(O)C[C@H](O[C@H]2C[C@H](N(C)CCO)[C@H](O)[C@H](C)O2)c2c(O)c3c(c(O)c2[C@H]1O)C(=O)c1cccc(O)c1C3=O [Compound 3, -O-(3'-N-Hydroxyethyl-3'-N-methyl-alpha-L-daunosaminyl)-β-rhodomycinone]	0.2 to 1 mg/kg	0.02 µg/mL (≈ 0.0349 µM)	0.044 µg/mL (≈ 0.0767 µM)						response vs control in vivo at 1.13 mg/kg ([1]; Mus musculus, L1210, iv, 3xiv,q3d, dose 1.13 mg/kg, % of the control): 108%
CC[C@@]1(O)C[C@H](O[C@H]2C[C@H](N(C)Cc3ccncc3)[C@H](O)[C@H](C)O2)c2c(O)c3c(c(O)c2[C@H]1O)C(=O)c1cccc(O)c1C3=O [Compound 4, 7-O-(3'-N-Methyl-3'-N-(4-picolyl)-alpha-L-daunosaminyl)-β-rhodomycinone]	2.5 to 5 mg/kg	0.023 µg/mL (≈ 0.0371 µM)	0.1 µg/mL (≈ 0.161 µM)	1.6	0.2%			not cross-resistant to doxorubicin	
CC[C@@]1(O)C[C@H](O[C@H]2C[C@H](N(C)Cc3ccco3)[C@H](O)[C@H](C)O2)c2c(O)c3c(c(O)c2[C@H]1O)C(=O)c1cccc(O)c1C3=O [Compound 6, 7-O-(3'-N-(2-Furfuryl)-3'-N-methyl-alpha-L-daunosaminyl)-β-rhodomycinone]	1 to 5 mg/kg	0.03 µg/mL (≈ 0.0492 µM)	0.038 µg/mL (≈ 0.0623 µM)	2.0	2.0%			not cross-resistant to doxorubicin	response vs control in vivo at 2.8 mg/kg ([1]; Mus musculus, L1210, ip, 3xip,q3d, % of the control): 141%; response vs control in vivo at 2.8 mg/kg ([1]; Mus musculus, L1210, iv, 3xiv,q3d, % of the control): 129%
CC[C@@]1(O)C[C@H](O[C@H]2C[C@H](N(C)CC(N)=O)[C@H](O)[C@H](C)O2)c2c(O)c3c(c(O)c2[C@H]1O)C(=O)c1cccc(O)c1C3=O [Compound 7, 7-O-(3'-N-Acetamido-3'-N-methyl-alpha-L-daunosaminyl)-β-rhodomycinone]	2 to 5 mg/kg	0.084 µg/mL (≈ 0.143 µM)	0.24 µg/mL (≈ 0.409 µM)						response vs control in vivo at 11.2 mg/kg ([1]; Mus musculus, L1210, iv, 3xiv,q3d, dose 11.2 mg/kg, % of the control): 142%
CC[C@@]1(O)C[C@H](O[C@H]2C[C@H](N(C)CC3CO3)[C@H](O)[C@H](C)O2)c2c(O)c3c(c(O)c2[C@H]1O)C(=O)c1cccc(O)c1C3=O (stereo partly drawn) [Compound 8m, 7-O-(3'-N-Glycidyl-3'-N-methyl-alpha-L-daunosaminyl)-β-rhodomycinone]						0.002 µg/mL (≈ 0.00342 µM)	0.0072 µg/mL (≈ 0.0123 µM)		response vs control in vivo at 0.47 mg/kg [1, 8]: 114%
C=CCN(C)[C@H]1C[C@H](O[C@H]2C[C@](O)(CC)[C@H](O)c3c(O)c4c(c(O)c32)C(=O)c2c(O)ccc(O)c2C4=O)O[C@@H](C)[C@H]1O [Compound 9, 7-O-(3'-N-Allyl-3'-N-methyl-alpha-L-daunosaminyl)-β-isorhodomycinone]	> 6 mg/kg	0.008 µg/mL (≈ 0.0137 µM)	0.5 µg/mL (≈ 0.854 µM)						
CCOC(=O)CN(C)[C@H]1C[C@H](O[C@H]2C[C@](O)(CC)[C@H](O)c3c(O)c4c(c(O)c32)C(=O)c2c(O)cccc2C4=O)O[C@@H](C)[C@H]1O [Compound 10, 7-O-(3'-N-(Ethoxycarbonylmethyl)-3'-N-methyl-alpha-L-daunosaminyl)-β-rhodomycinone]	10 to 25 mg/kg	0.1 µg/mL (≈ 0.162 µM)	0.06 µg/mL (≈ 0.0975 µM)						response vs control in vivo at 12.7 mg/kg ([1]; Mus musculus, L1210, iv, 3xiv,q3d, dose 12.7 mg/kg, % of the control): 132%
CC[C@@]1(O)C[C@H](O[C@H]2C[C@H](N(C)Cc3ccsc3)[C@H](O)[C@H](C)O2)c2c(O)c3c(c(O)c2[C@H]1O)C(=O)c1cccc(O)c1C3=O [Compound 12, 7-O-(3'-N-Methyl-3'-N-(3-thenyl)-alpha-L-daunosaminyl)-β-rhodomycinone]						0.032 µg/mL (≈ 0.0511 µM)	0.17 µg/mL (≈ 0.272 µM)		LD50 at 336 h [5]: 2 to 5 mg/kg
